Assay results reported in patent US20070135499A1 (Aerie Pharmaceuticals, Inc., priority 2005, published 2007).

These compounds were tested against T1, hGRK-2 (Homo sapiens, UniProt P25098) (assay: luciferase-based (Kinase-Glo) biochemical kinase inhibition assay, hGRK-2). Details: luciferase assay, casein substrate, 10 μM ATP; read-out: GRK-2 inhibition, Ki class.
T1 sequence (P25098 1-689): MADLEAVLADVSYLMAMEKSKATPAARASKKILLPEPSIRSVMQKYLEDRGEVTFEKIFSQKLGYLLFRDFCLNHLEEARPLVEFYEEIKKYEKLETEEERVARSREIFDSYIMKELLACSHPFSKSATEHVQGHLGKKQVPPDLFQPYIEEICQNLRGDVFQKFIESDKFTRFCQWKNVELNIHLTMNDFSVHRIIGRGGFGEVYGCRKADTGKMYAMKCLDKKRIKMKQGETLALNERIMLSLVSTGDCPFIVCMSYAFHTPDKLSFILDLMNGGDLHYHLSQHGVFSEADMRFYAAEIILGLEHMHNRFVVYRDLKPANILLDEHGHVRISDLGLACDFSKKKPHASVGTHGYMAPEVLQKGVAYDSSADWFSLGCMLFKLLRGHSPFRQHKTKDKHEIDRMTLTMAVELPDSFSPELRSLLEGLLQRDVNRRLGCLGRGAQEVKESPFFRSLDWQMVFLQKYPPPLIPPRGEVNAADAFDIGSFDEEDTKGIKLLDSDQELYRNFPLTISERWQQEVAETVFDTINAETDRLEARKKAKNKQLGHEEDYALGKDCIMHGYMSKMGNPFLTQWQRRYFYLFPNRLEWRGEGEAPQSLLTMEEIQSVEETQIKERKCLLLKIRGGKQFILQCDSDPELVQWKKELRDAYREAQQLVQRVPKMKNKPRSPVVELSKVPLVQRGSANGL
Protocol: The inhibition of G-protein-coupled receptor kinases including hGRK-2 was determined for the hydrazide compounds using a biochemical assay. The inhibition of GRK-3, GRK-5 and GRK-6 was also determined using the same assay for some of the hydrazide derivatives.
The protein kinase inhibition was determined using a biochemical assay utilizing the light emission of a luciferase reaction. The luciferase-based assay operates on the following reaction principles: [drawing 10]
An inhibitor of GRK-2 will increase in the amount of ATP in solution, as shown. Thus, an inhibitor of GRK-2 will drive the luciferase reaction to the right, resulting in more light emitted. The amount of light emitted is proportional to the inhibition resulting from the GRK-2 inhibitor. The luciferase-based assay was also used to test some of the hydrazides for the inhibition properties towards other kinases.
The test procedure was as follows:
• 50 mM HEPES, pH 7.5 • 10 mM MgCl2 • 100 μM activated sodium orthovanadate • 0.01% CHAPS • 0.1% BSA • 1 mM DTT (added fresh daily) 10× Assay Buffer Stock: • 500 mM HEPES, pH 7.5 • 100 mM MgCl2 • 1 mM activated sodium orthovanadate • 0.1% CHAPS • 1% BSA (leave out for 10× compound dilution buffer) Final Assay Conditions: • 50 μM test compound • 20 μM casein • 10 μM ATP • 50 nM hGRK2 • 4.5% DMSO • 90-120 minute incubation
Stopped by addition of 30 μl 3×-diluted Kinase-Glo reagent containing 0.01% trypan blue. Counted on FUSION plate reader.
Compound Dilution and Transfer
Prepare sufficient buffer containing 40% DMSO to add 20 μl/well to the number of plates being assayed. This buffer should not contain BSA because it will precipitate with addition of 40% DMSO. (EXAMPLE: To make 3000 ml compound dilution buffer: 1200 ml DMSO, 180 ml 10× compound dilution buffer, 1615 ml ultrapure water, 3 ml 1M DTT.).
Using Multidrop, add 20 μl of compound dilution buffer to all wells of the 384-well daughter plate (add 1 μl DMSO to control wells). This will result in a daughter plate which contains 21 μl of ˜500 μM test compound.
Using the PlateTrak, transfer 5 μl of the test compounds to a 384-well, non-binding, white microtiter plate.
Prepare sufficient volume of buffer (with BSA and 1 mM DTT) containing 125 nM GRK2 and 25 μM ATP. (Example: To 219 ml of buffer was added 550 μl 10 mM ATP and 350 μl 79 μM GRK2).
Using Multidrop, add 20 μl of GRK2/ATP mixture to all wells of the microtiter plate.
Prepare sufficient volume of buffer (with BSA and 1 mM DTT) containing 40 μM casein. (EXAMPLE: To 211 ml buffer add 8.8 ml 1 mM casein)
Using Multidrop, add 25 μl to columns 1 through 23 of the microtiter plate. Add 25 μl of complete buffer to column 24 (blanks).
Mix reaction gently by tapping (Multidrop addition of casein does a decent job of mixing), stack plates and incubate at room temperature for between 90 and 120 minutes. Assay progression can be tracked in a separate plate if desired. Target 20-30% ATP consumption. Try to avoid exceeding 40% consumption as kinetics might become non-linear due to substrate (ATP) depletion.
Addition of Kinase-Glo Reagents
The Kinase-Glo reagent can be diluted 3-fold with no loss of data quality in this assay. Additionally, since the library contains many colored compounds which will quench the light emitted from the well resulting in a false negative (kinase inhibitors result in less ATP consumption thus more light emitted), the entire reaction is subject to intentional quench to override this effect. This intentional quench is accomplished by the addition of 0.01% trypan blue to the Kinase-Glo reagents. (EXAMPLE: 100 ml 1× Kinase-Glo reagents (prepared according to product insert), 200 ml assay buffer, 7.5 ml 0.4% trypan blue.
Using Multidrop, add 30 μl to all wells of the assay plate.
Count on FUSION plate reader in luminescence mode.
Work on O=C(COc1cccc(Cl)c1)N/N=C/c1ccncc1 [Example 38, (3-Chloro-phenoxy)-acetic acid [1-pyridin-4-yl-meth-(E)-ylidene]-hydrazide] yielded a Ki of over 10 µM. For N#Cc1cccc(NCC(=O)N/N=C/c2ccncc2)c1 [Example 39, (3-Cyano-phenylamino)-acetic acid [1-pyridin-4-yl-meth-(E)-ylidene]-hydrazide], the Ki was 1 to 10 µM. For O=C(CNc1ccccc1)N/N=C/c1ccncc1 [Example 42, Phenylamino-acetic acid [1-pyridin-4-yl-meth-(E)-ylidene]-hydrazide], the Ki was 0.1 to 1 µM. For O=C(CNc1cccc(Br)c1)N/N=C/c1ccncc1 [Example 44, (3-Bromo-phenylamino)-acetic acid [1-pyridin-4-yl-meth-(E)-ylidene]-hydrazide], the Ki was 0.1 to 1 µM. Cc1cccc(NCC(=O)N/N=C/c2ccncc2)c1 [Example 46, (3-Methyl-phenylamino)-acetic acid [1-pyridin-4-yl-meth-(E)-ylidene]-hydrazide] was tested, and the Ki was 1 to 10 µM. O=C(CNc1cccc(I)c1)N/N=C/c1ccncc1 [Example 49, (3-Iodo-phenylamino)-acetic acid [1-pyridin-4-yl-meth-(E)-ylidene]-hydrazide] showed a Ki of 0.1 to 1 µM. O=C(CNc1cccc(C(F)(F)F)c1)N/N=C/c1ccncc1 [Example 50, (3-Trifluoromethyl-phenylamino)-acetic acid [1-pyridin-4-yl-meth-(E)-ylidene]-hydrazide] was tested, and the Ki was 1 to 10 µM. In the case of O=C(CNc1ccc(F)cc1)N/N=C/c1ccncc1 [Example 53, (4-fluoro-phenylamino)-acetic acid [1-pyridin-4-yl-meth-(E)-ylidene]-hydrazide], the Ki is reported as 1 to 10 µM. O=C(CNc1ccc(C(F)(F)F)cc1)N/N=C/c1ccncc1 [Example 54, (4-Trifluoromethyl-phenylamino)-acetic acid [1-pyridin-4-yl-meth-(E)-ylidene]-hydrazide] gave a Ki of over 10 µM. Work on Cc1ccc(NCC(=O)N/N=C/c2ccncc2)cc1 [Example 56, (4-Methyl-phenylamino)-acetic acid [1-pyridin-4-yl-meth-(E)-ylidene]-hydrazide] yielded a Ki of over 10 µM. For O=C(CNc1ccc(Cl)cc1)N/N=C/c1ccncc1 [Example 57, (4-Chloro-phenylamino)-acetic acid [1-pyridin-4-yl-meth-(E)-ylidene]-hydrazide], the Ki was 1 to 10 µM. CC(C)Oc1cccc(NCC(=O)N/N=C/c2ccncc2)c1 [Example 58, (3-Isopropoxy-phenylamino)-acetic acid [1-pyridin-4-yl-meth-(E)-ylidene]-hydrazide] gave a Ki of 1 to 10 µM. CCc1cccc(NCC(=O)N/N=C/c2ccncc2)c1 [Example 59, (3-Ethyl-phenylamino)-acetic acid [1-pyridin-4-yl-meth-(E)-ylidene]-hydrazide] was tested, and the Ki was 1 to 10 µM. N#Cc1ccc(NCC(=O)N/N=C/c2ccncc2)cc1 [Example 60] was tested, and the Ki was 1 to 10 µM. With CC(C)c1cccc(NCC(=O)N/N=C/c2ccncc2)c1 [Example 61, (3-Isopropyl-phenylamino)-acetic acid [1-pyridin-4-yl-meth-(E)-ylidene]-hydrazide] the Ki was over 10 µM. In the case of CS(=O)(=O)Nc1cccc(NCC(=O)N/N=C/c2ccncc2)c1 [Example 64], the Ki is reported as over 10 µM. For Cc1ccccc1NCC(=O)N/N=C/c1ccncc1 [Example 65, o-Tolylamino-acetic acid [1-pyridin-4-yl-meth-(E)-ylidene]-hydrazide], the Ki was over 10 µM. CCOc1ccccc1NCC(=O)N/N=C/c1ccncc1 [Example 66, (2-Ethoxy-phenylamino)-acetic acid [1-pyridin-4-yl-meth-(E)-ylidene]-hydrazide] showed a Ki of over 10 µM. Work on COc1ccccc1NCC(=O)N/N=C/c1ccncc1 [Example 67, (2-Methoxy-phenylamino)-acetic acid [1-pyridin-4-yl-meth-(E)-ylidene]-hydrazide] yielded a Ki of over 10 µM. Compound CCc1ccccc1NCC(=O)N/N=C/c1ccncc1 [Example 68, (2-Ethyl-phenylamino)-acetic acid [1-pyridin-4-yl-meth-(E)-ylidene]-hydrazide] has a Ki of over 10 µM. CC(C)c1ccccc1NCC(=O)N/N=C/c1ccncc1 [Example 69, (2-Isopropyl-phenylamino)-acetic acid [1-pyridin-4-yl-meth-(E)-ylidene]-hydrazide] showed a Ki of over 10 µM. Work on O=C(CNc1ccccc1Cc1ccccc1)N/N=C/c1ccncc1 [Example 70, (2-Benzyl-phenylamino)-acetic acid [1-pyridin-4-yl-meth-(E)-ylidene]-hydrazide] yielded a Ki of 1 to 10 µM. O=C(CNc1ccc(I)cc1)N/N=C/c1ccncc1 [Example 71, (4-Iodo-phenylamino)-acetic acid [1-pyridin-4-yl-meth-(E)-ylidene]-hydrazide] gave a Ki of over 10 µM. CC(=O)Nc1cccc(NCC(=O)N/N=C/c2ccncc2)c1 [Example 72, N-(3-{[1-Pyridin-4-yl-meth-(E)-ylidene-hydrazinocarbonylmethyl]-amino}-phenyl)-acetamide] showed a Ki of over 10 µM. CS(=O)(=O)c1cccc(NCC(=O)N/N=C/c2ccncc2)c1 [Example 73, (3-Methanesulfonyl-phenylamino)-acetic acid [1-pyridin-4-yl-meth-(E)-ylidene]-hydrazide] showed a Ki of 1 to 10 µM. For O=C(CNc1ccccc1N1CCCCC1)N/N=C/c1ccncc1 [Example 74, (2-Piperidin-1-yl-phenylamino)-acetic acid [1-pyridin-4-yl-meth-(E)-ylidene]-hydrazide], the Ki was over 10 µM. Compound NC(=O)c1ccc(NCC(=O)N/N=C/c2ccncc2)cc1 [Example 75, 4-{[1-Pyridin-4-yl-meth-(E)-ylidene-hydrazinocarbonylmethyl]-amino}-benzamide] has a Ki of over 10 µM. O=C(CNc1cccc(-n2cncn2)c1)N/N=C/c1ccncc1 [Example 78, (3-[1,2,4]Triazol-1-yl-phenylamino)-acetic acid [1-pyridin-4-yl-meth-(E)-ylidene]-hydrazide] was tested, and the Ki was over 10 µM. O=C(CNc1cccc(C(=O)Nc2cccnc2)c1)N/N=C/c1ccncc1 [Example 80, N-Pyridin-3-yl-3-{[1-pyridin-4-yl-meth-(E)-ylidene-hydrazinocarbonylmethyl]-amino}-benzamide] showed a Ki of 0.1 to 1 µM. For O=C(CNc1cccc(-n2cccn2)c1)N/N=C/c1ccncc1 [Example 82, (3-Pyrazol-1-yl-phenylamino)-acetic acid [1-pyridin-4-yl-meth-(E)-ylidene]-hydrazide], the Ki was over 10 µM.
